In ChEMBL document CHEMBL5131471, “Design, synthesis and mechanism studies of novel dual PARP1/BRD4 inhibitors against pancreatic cancer” (Eur J Med Chem, 2022):

Columns and labels:
[1] = molecular target: Bromodomain-containing protein 4 (Homo sapiens, UniProt O60885); assay: Inhibition of BRD4-BD1/2 (unknown origin)
MDA-MB-468 = assay: Antiproliferative activity against BRCA-proficient human MDA-MB-468 cells assessed as inhibition of cell growth measured after 7 days by MTT assay; format: functional, cell-based; conditions: MDA-MB-468, 168 h
THP-1 = assay: Antiproliferative activity against human THP-1 cells expressing BRD4 assessed as inhibition of cell growth measured after 3 days by MTT assay; format: functional, cell-based; conditions: THP-1, 72 h
HCT-116 = assay: Antiproliferative activity against BRCA2-mutated human HCT-116 cells assessed as inhibition of cell growth measured after 7 days by MTT assay; format: functional, cell-based; conditions: HCT-116, 168 h
[2] = molecular target: Poly [ADP-ribose] polymerase 1 (Homo sapiens, UniProt P09874); assay: Inhibition of PARP1 (unknown origin) using biotinylated NAD+ as substrate by microplate reader method
MDA-MB-231 = assay: Antiproliferative activity against BRCA-proficient human MDA-MB-231 cells assessed as inhibition of cell growth measured after 7 days by MTT assay; format: functional, cell-based; conditions: MDA-MB-231, 168 h
CFPAC-1 = assay: Antiproliferative activity against human CFPAC-1 cells assessed as inhibition of cell growth measured after 4 days by MTT assay; format: functional, cell-based; conditions: CFPAC-1, 96 h
CAPAN-1 = assay: Antiproliferative activity against human CAPAN-1 cells assessed as inhibition of cell growth measured after 4 days by MTT assay; format: functional, cell-based; conditions: CAPAN-1, 96 h
SW1990 = assay: Antiproliferative activity against human SW1990 cells assessed as inhibition of cell growth measured after 4 days by MTT assay; format: functional, cell-based; conditions: SW1990, 96 h

Sequence of Poly [ADP-ribose] polymerase 1 (P09874 whole entry): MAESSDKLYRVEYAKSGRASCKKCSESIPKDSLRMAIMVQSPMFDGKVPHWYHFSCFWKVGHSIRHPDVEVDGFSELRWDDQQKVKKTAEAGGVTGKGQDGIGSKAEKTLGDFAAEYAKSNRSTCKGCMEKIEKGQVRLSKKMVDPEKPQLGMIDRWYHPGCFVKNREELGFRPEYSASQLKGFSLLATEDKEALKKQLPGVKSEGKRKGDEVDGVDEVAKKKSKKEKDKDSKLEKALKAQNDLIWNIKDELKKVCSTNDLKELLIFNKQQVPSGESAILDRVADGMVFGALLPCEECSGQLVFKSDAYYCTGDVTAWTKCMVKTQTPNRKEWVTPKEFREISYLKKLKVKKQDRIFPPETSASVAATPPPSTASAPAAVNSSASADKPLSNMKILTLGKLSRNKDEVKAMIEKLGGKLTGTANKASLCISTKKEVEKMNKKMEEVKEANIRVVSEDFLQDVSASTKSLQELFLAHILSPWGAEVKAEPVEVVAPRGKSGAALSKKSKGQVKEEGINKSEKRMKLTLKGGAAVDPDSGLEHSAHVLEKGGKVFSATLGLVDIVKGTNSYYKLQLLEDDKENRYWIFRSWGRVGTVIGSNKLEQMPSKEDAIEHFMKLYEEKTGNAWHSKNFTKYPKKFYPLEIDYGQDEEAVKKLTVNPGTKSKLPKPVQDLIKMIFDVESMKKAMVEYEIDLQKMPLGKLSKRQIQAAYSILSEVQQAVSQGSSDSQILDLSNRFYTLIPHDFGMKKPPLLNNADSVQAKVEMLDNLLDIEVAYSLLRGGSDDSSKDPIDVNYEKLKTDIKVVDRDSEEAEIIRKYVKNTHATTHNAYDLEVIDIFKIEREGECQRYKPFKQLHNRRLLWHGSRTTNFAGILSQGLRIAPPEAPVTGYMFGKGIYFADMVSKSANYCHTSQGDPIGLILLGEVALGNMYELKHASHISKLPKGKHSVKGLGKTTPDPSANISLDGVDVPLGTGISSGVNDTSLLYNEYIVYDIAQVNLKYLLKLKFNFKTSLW

Work on `Cc1noc(C)c1-c1ccc2c(c1)C(c1ccccc1)N(CC(=O)N[C@H](C)c1nc3c(C(N)=O)cccc3[nH]1)C(=O)N2` (stereo partly specified) yielded an IC50 [1] of 116 nM, an IC50 (MDA-MB-468) of 930 nM and an IC50 (THP-1) of 1530 nM. The IC50 (HCT-116) was 16900 nM, the IC50 [2] was 112 nM and the IC50 (MDA-MB-231) was 2600 nM.
For `Cc1noc(C)c1-c1ccc2c(c1)C(c1ccccc1)N(CC(=O)N[C@@H](C)c1nc3c(C(N)=O)cccc3[nH]1)C(=O)N2C` (stereo partly specified), the IC50 [1] was 326 nM, the IC50 (MDA-MB-468) was 380 nM and the IC50 (THP-1) was 740 nM. It also gave an IC50 (HCT-116) of 5290 nM, an IC50 [2] of 187 nM and an IC50 (MDA-MB-231) of 520 nM.
For `Cc1noc(C)c1-c1ccc2c(c1)C(c1ccccc1)N(CC(=O)c1nc3c(C(N)=O)cccc3[nH]1)C(=O)N2` (stereo unspecified), the IC50 [1] was 132 nM, the IC50 (MDA-MB-468) was 2590 nM and the IC50 (THP-1) was 4090 nM. For the same compound, the IC50 (HCT-116) was 44400 nM, the IC50 [2] was 116 nM and the IC50 (MDA-MB-231) was 8090 nM.
In the case of `Cc1noc(C)c1-c1ccc2c(c1)C(c1ccccc1)N(CC(=O)NC(C)(C)c1nc3c(C(N)=O)cccc3[nH]1)C(=O)N2` (stereo unspecified), the IC50 [1] is reported as 102 nM, the IC50 (MDA-MB-468) is reported as 460 nM and the IC50 (THP-1) is reported as 690 nM. It also gave an IC50 (HCT-116) of 11800 nM, an IC50 (CFPAC-1) of 2560 nM and an IC50 [2] of 62 nM. The IC50 (MDA-MB-231) was 920 nM, the IC50 (CAPAN-1) was 3710 nM and the IC50 (SW1990) was 3880 nM.
For `Cc1noc(C)c1-c1ccc2c(c1)C(c1ccccc1)N(Cc1nc3c(C(N)=O)cccc3[nH]1)C(=O)N2` (stereo unspecified), the IC50 [1] was 43 nM, the IC50 (MDA-MB-468) was 1120 nM and the IC50 (THP-1) was 210 nM. For the same compound, the IC50 (HCT-116) was 3720 nM, the IC50 (CFPAC-1) was 2030 nM and the IC50 [2] was 361 nM. For the same compound, the IC50 (MDA-MB-231) was 1320 nM, the IC50 (CAPAN-1) was 2310 nM and the IC50 (SW1990) was 2520 nM.
`Cc1noc(C)c1-c1ccc2c(c1)C(c1ccccc1)N(CC(=O)NC(c1nc3c(C(N)=O)cccc3[nH]1)C(C)C)C(=O)N2` (stereo unspecified) was tested, and the IC50 [1] was 114 nM and the IC50 [2] was 326 nM.
For `Cc1noc(C)c1-c1ccc2c(c1)C(c1ccccc1)N(CC(=O)NCc1nc3c(C(N)=O)cccc3[nH]1)C(=O)N2C` (stereo unspecified), the IC50 [1] was 534 nM and the IC50 [2] was 73 nM.
In the case of `Cc1noc(C)c1-c1ccc2c(c1)C(c1ccccc1)N(CC(=O)N[C@@H](C)c1nc3c(C(N)=O)cccc3[nH]1)C(=O)N2` (stereo partly specified), the IC50 [1] is reported as 90 nM, the IC50 (MDA-MB-468) is reported as 1040 nM and the IC50 (THP-1) is reported as 1660 nM. For the same compound, the IC50 (HCT-116) was 16500 nM, the IC50 [2] was 52 nM and the IC50 (MDA-MB-231) was 2630 nM.
